Read-outs that look alike come from different tables or passages of the source.
Key:
[1] = tested on: Leishmania donovani promastigotes; test: In vitro antipromastigote assay (resazurin fluorescence); format: cell-based; details: L. donovani promastigotes, 72 h
Protocol: (§1) In vitro antileishmanial activity tests were carried out against the promastigote stage and axenically cultured amastigotes of L. aethiopica and L. donovani. The two isolates were grown in tissue culture flasks containing RPMI 1640 medium supplemented with 10% heat-inactivated fetal calf serum, 100 IU penicillin/mL, and 100 μg/mL streptomycin solution at 22°C for L. aethiopica and 24°C for L. donovani. Axenically cultured amastigotes were obtained from the late stationary phase promastigotes (3 × 10^6 cells/ml). The cells were centrifuged and then resuspended in medium 199 with Hank's salts supplemented with 20% FBS, 2 mM L-glutamine, 50 IU/mL penicillin, and 50 μg/mL streptomycin. The pH was adjusted to 5.5 using 1 N HCl. Following incubation of cells at 31°C for L. aethiopica and 37°C for L. donovani at 5% CO2, amastigote-like rounded morphology together with loss of flagella and cell clumping started appearing within 24 h. The parasites were kept for a week as some motile parasites with intermediate forms and short flagella were detected. The human monocytic leukemia cell line THP-1 cells were incubated in RPMI 1640 medium plus 10% hi-FCS and 20 ng/mL phorbol 12-myristate 13-acetate (PMA; Sigma) at 37°C and 5% CO2 for 72 h. A cell-free medium was used to grow parasites in vitro and to set up the test system for determination of the IC50 values of the test substances.
(§2) To a separate 96-well microtiter plate containing 100 μL of complete culture medium, each of the test substances was added to triplicate wells to achieve a final concentration of 100 μg/mL. Each one hundred microliter suspension of the parasites (3.5 × 10^6 promastigotes or axenically cultured amastigotes /mL of L. aethiopica or L. donovani) obtained from the previous culture was then added to each well, and contents of each plates were maintained for 72 h, at room temperature for promastigotes stages of both strains, at 31°C and 37°C for axenically cultured amastigotes of L. aethiopica and L. donovani, respectively. After 68 h of incubation, 20 μL (10% of the total volume of each well) resazurin (0.125 mg/mL) was added, covered with aluminum foil, and left at temperature mentioned above. Antileishmanial effect of the test substances was studied on the basis of fluorescence characteristic of resazurin added to drug-treated cultures.
(§3) Antipromastigote effect was evaluated against clinical isolates of L. aethiopica and L. donovani strains, as per the method described by Abeje et al..
(§4) Antileishmanial activity (IC50) was expressed as mean ± SD of triplicate measurements. IC50 values were evaluated from sigmoidal dose-response curves of percent inhibition using the computer software GraphPad Prism 8 (GraphPad Software, Inc., CA, USA), and values expressed as mean ± SD of triplicate experiments.

[2] = tested on: Leishmania aethiopica promastigotes; test: as above; format: cell-based
Protocol: as §1, §2, §3, §4

[3] = tested on: axenically cultured amastigotes of Leishmania aethiopica; test: In vitro assay on axenically cultured amastigotes (resazurin fluorescence); format: cell-based; details: for Selectivity index: LC50 on THP-1 cells / IC50 on L. aethiopica amastigotes; for IC50: Leishmania aethiopica, L. aethiopica axenic amastigotes, 72 h
Protocol: as §1, with “The human monocytic leukemia cell line THP-1 cells were incubated in RPMI 1640 medium plus 10% hi-FCS and 20 ng/mL phorbol 12-myristate 13-acetate (PMA; Sigma) at 37°C and 5% CO2 for 72 h.” left out, “substances. […] Each one hundred microliter suspension of the parasites (3.5 × 10^6 promastigotes or axenically cultured amastigotes /mL of L. aethiopica or L. donovani) obtained from the previous culture was then added to each well, and contents of each plates were maintained for 72 h, at room temperature for promastigotes stages of both strains, at 31°C and 37°C for axenically cultured amastigotes of L. aethiopica and L. donovani, respectively. After 68 h of incubation, 20 μL (10% of the total volume of each well) resazurin (0.125 mg/mL) was added, covered with aluminum foil, and left at temperature mentioned above. […] Antileishmanial activity (IC50) was expressed as mean ± SD of triplicate measurements. IC50 values were evaluated from sigmoidal dose-response curves of percent inhibition using the computer software GraphPad Prism 8 (GraphPad Software, Inc., CA, USA), and values expressed as mean ± SD of triplicate experiments.” for “substances.”

[4] = tested on: axenically cultured amastigotes of Leishmania donovani; test: as above; format: cell-based; details: for Selectivity index: LC50 on THP-1 cells / IC50 on L. donovani amastigotes; for IC50: Leishmania donovani, L. donovani axenic amastigotes, 72 h
Protocol: as §1, with “The human monocytic leukemia cell line THP-1 cells were incubated in RPMI 1640 medium plus 10% hi-FCS and 20 ng/mL phorbol 12-myristate 13-acetate (PMA; Sigma) at 37°C and 5% CO2 for 72 h.” left out, “substances. […] Each one hundred microliter suspension of the parasites (3.5 × 10^6 promastigotes or axenically cultured amastigotes /mL of L. aethiopica or L. donovani) obtained from the previous culture was then added to each well, and contents of each plates were maintained for 72 h, at room temperature for promastigotes stages of both strains, at 31°C and 37°C for axenically cultured amastigotes of L. aethiopica and L. donovani, respectively. After 68 h of incubation, 20 μL (10% of the total volume of each well) resazurin (0.125 mg/mL) was added, covered with aluminum foil, and left at temperature mentioned above. […] Antileishmanial activity (IC50) was expressed as mean ± SD of triplicate measurements. IC50 values were evaluated from sigmoidal dose-response curves of percent inhibition using the computer software GraphPad Prism 8 (GraphPad Software, Inc., CA, USA), and values expressed as mean ± SD of triplicate experiments.” for “substances.”

[5] = Cytotoxicity study in THP-1 monocytes (Alamar Blue); format: cell-based; details: human
Protocol: In vitro antileishmanial activity tests were carried out against the promastigote stage and axenically cultured amastigotes of L. aethiopica and L. donovani. […] Axenically cultured amastigotes were obtained from the late stationary phase promastigotes (3 × 10^6 cells/ml). […] The pH was adjusted to 5.5 using 1 N HCl. Following incubation of cells at 31°C for L. aethiopica and 37°C for L. donovani at 5% CO2, amastigote-like rounded morphology together with loss of flagella and cell clumping started appearing within 24 h. The parasites were kept for a week as some motile parasites with intermediate forms and short flagella were detected. […] A cell-free medium was used to grow parasites in vitro and to set up the test system for determination of the IC50 values of the test substances.
THP-1 monocytes were plated onto 96-well plates at a density of 4 × 10^4 cells per well (in 200 μL volume) in the presence or absence of test substances and plates incubated at 37°C, 5% CO2 for 72 h. After adding Alamar Blue™ during the last 3 h of incubation, cell viability was measured fluorometrically as described above.

L. major amastigotes = tested on: L. major amastigotes; set-up: method as in PMID 26151018; details: in vitro; cited from earlier work
[6] = Acute toxicity study (OECD limit test); details: mouse, in vivo; Swiss albino mice, limit test dose 2000 mg/kg, OECD guideline
Protocol: Acute toxicity study was carried out as described earlier using the limit test dose of 2000 mg/kg according to OECD guideline for testing of chemicals on Swiss albino mice.

[7] = mean ± SD, n = 3, read-out: Antipromastigote activity IC50
[8] = read-out: Antipromastigote activity IC50 (micromolar, in parenthesis) (converted)
[9] = L. aethiopica promastigotes, 72 h, mean ± SD, n = 3, read-out: Antipromastigote activity IC50
[10] = L. aethiopica promastigotes, 72 h, read-out: Antipromastigote activity IC50 (micromolar, in parenthesis) (converted)
[11] = 31°C, mean ± SD, n = 3, read-out: Antiaxenically cultured amastigotes activity IC50
[12] = read-out: Antiaxenically cultured amastigotes activity IC50 (micromolar, in parenthesis) (converted)
[13] = 37°C, mean ± SD, n = 3, read-out: Antiaxenically cultured amastigotes activity IC50
[14] = mean ± SD, n = 3, read-out: Cytotoxic effect in THP-1 LC50
[15] = read-out: Cytotoxic effect in THP-1 LC50 (micromolar, in parenthesis) (converted)

Row | IC50 ([2]; promastigotes and axenic amastigotes of L. aethiopica and L. donovani, read-out: IC50 (range over both stages and both species)) [µM] | SMILES | IC50 [1, 7] [µg/mL] | IC50 [1, 8] [µM] | IC50 [2, 9] [µg/mL] | IC50 [2, 10] [µM] | Selectivity index [3] | IC50 [3, 11] [µg/mL] | IC50 [3, 12] [µM] | Selectivity index [4] | IC50 [4, 13] [µg/mL] | IC50 [4, 12] [µM] | CC50 at 72 h [5, 14] [µg/mL] | CC50 at 72 h [5, 15] [µM] | inhibitory concentrations against L. major amastigotes (L. major amastigotes) [µg/mL] | LD50 [6] [mg/kg]
1 |  | O=C1c2cccc(O)c2C(=O)c2c(O)cc(CO)cc21 [Aloe-emodin, aloe-emodin] | 2.85 ± 0.5 | 10.6 | 2.81 ± 0.43 | 10.4 | 65.22 | 2.23 ± 0.33 | 8.3 | 52.89 | 2.75 ± 0.03 | 10.2 | 145.4 ± 0.27 | 539 | 40 | > 2000
2 |  | O=C1c2c(O)cccc2C(C2OC(CO)C(O)C(O)C2O)c2cc(CO)cc(O)c21 (centres unmarked) [Aloin A/B, aloin A/B] | 5.06 ± 0.22 | 12.1 | 3.94 ± 0.33 | 9.4 | 55.11 | 2.8 ± 1.02 | 6.7 | 52.84 | 2.92 ± 0.15 | 7 | 154.3 ± 0.22 | 369 |  | > 2000
3 | 1.3 to 2.7 | C[C@@H]1[C@H](O)[C@@H](C)/C=C/C=C/C=C/C=C/C=C/C=C/C=C/[C@H](O[C@@H]2O[C@H](C)[C@@H](O)[C@H](N)[C@@H]2O)C[C@@H]2O[C@](O)(C[C@@H](O)C[C@@H](O)[C@H](O)CC[C@@H](O)C[C@@H](O)CC(=O)O[C@H]1C)C[C@H](O)[C@H]2C(=O)O [Amphotericin B, amphotericin B, reference compound] | 2.45 ± 0.21 | 2.7 | 2.43 ± 0.22 | 2.6 | 8.31 | 1.23 ± 0.41 | 1.3 | 6.60 | 1.55 ± 0.51 | 1.7 | 10.2 ± 0.32 | 11.1 |  | 
4 |  | O=C(O)c1cc(O)c2c(c1)C(=O)c1cccc(O)c1C2=O [Rhein, rhein] | 2.07 ± 0.11 | 7.3 | 1.91 ± 0.61 | 6.7 | 171.98 | 1.01 ± 0.22 | 3.6 | 148.46 | 1.17 ± 0.42 | 4.1 | 173.7 ± 0.11 | 612 |  | > 2000

From article PMC6409032, “Antileishmanial Evaluation of the Leaf Latex of Aloe macrocarpa, Aloin A/B, and Its Semisynthetic Derivatives against Two Leishmania Species” (Evidence-based Complementary and Alternative Medicine : eCAM, 2019)
